From the CheMixHub viscosity set
“And” between values parts separate entries of the source, which are not always exact repeats. Equal entries are not always repeated.

Assay: xn = mol fraction of the nth substance listed

CCC(C)CO (configuration not stated) + O
298.15 K, 101 kPa
Conditions | viscosity [mPa·s]
x2 = 0.0025 | 4.797
x2 = 0.0548 | 4.447
x2 = 0.0985 | 4.284
x2 = 0.1421 | 4.163
x2 = 0.1741 | 4.101
x2 = 0.1943 | 4.07
x2 = 0.2403 | 4.025
x2 = 0.2657 | 4.011
x2 = 0.2859 | 4.01
x2 = 0.2923 | 4.005
x2 = 0.3149 | 4.005

CCCC[N+]1(C)CCCC1.N#C[S-] + O
Conditions | viscosity [mPa·s]
298.15 K, 101 kPa, x1 = 0.9147 | 91.83

CCNC(C)=O + O
298.16 K, 101 kPa
Conditions | viscosity [mPa·s]
x2 = 0.0826 | 6.11
x2 = 0.1593 | 6.33
x2 = 0.2575 | 6.67
x2 = 0.3475 | 6.96
x2 = 0.427 | 7.14
x2 = 0.4728 | 7.18
x2 = 0.5438 | 7.12
x2 = 0.585 | 6.98
x2 = 0.7047 | 6.14
x2 = 0.7459 | 5.72

NCC(=O)NCC(=O)O + O
viscosity
Conditions | 293.15 K | 298.15 K | 303.15 K | 308.15 K | 313.15 K | 318.15 K | 323.15 K
100 kPa, x1 = 0.000887 | – | 0.9004 mPa·s | – | 0.7285 mPa·s | 0.6622 mPa·s | 0.6045 mPa·s | –
100 kPa, x1 = 0.00175 | – | 0.907 mPa·s | 0.8135 mPa·s | 0.7349 mPa·s | 0.6683 mPa·s | 0.6105 mPa·s | –
100 kPa, x1 = 0.002593 | – | 0.9129 mPa·s | 0.8194 mPa·s | 0.7408 mPa·s | 0.6742 mPa·s | 0.6162 mPa·s | –
100 kPa, x1 = 0.003411 | – | 0.9185 mPa·s | 0.8251 mPa·s | 0.7465 mPa·s | 0.6797 mPa·s | 0.6216 mPa·s | –
100 kPa, x1 = 0.004207 | – | 0.9239 mPa·s | 0.8307 mPa·s | 0.752 mPa·s | 0.685 mPa·s | 0.6269 mPa·s | –
100 kPa, x1 = 0.004983 | – | 0.9292 mPa·s | 0.836 mPa·s | 0.7573 mPa·s | 0.6904 mPa·s | 0.6322 mPa·s | –
100 kPa, x1 = 0.005739 | – | 0.9343 mPa·s | 0.8413 mPa·s | 0.7627 mPa·s | 0.6957 mPa·s | 0.6374 mPa·s | –
100 kPa, x1 = 0.006476 | – | 0.9394 mPa·s | 0.8465 mPa·s | 0.7679 mPa·s | 0.7006 mPa·s | 0.6425 mPa·s | –
101.3 kPa, x1 = 0.002 | 1.04 mPa·s and 1.04 mPa·s | – | 0.82 mPa·s and 0.82 mPa·s | – | 0.67 mPa·s and 0.67 mPa·s | – | 0.56 mPa·s and 0.56 mPa·s
101.3 kPa, x1 = 0.004 | 1.08 mPa·s and 1.08 mPa·s | – | 0.85 mPa·s and 0.85 mPa·s | – | 0.69 mPa·s and 0.69 mPa·s | – | 0.59 mPa·s and 0.59 mPa·s
101.3 kPa, x1 = 0.005 | 1.1 mPa·s and 1.1 mPa·s | – | 0.87 mPa·s and 0.87 mPa·s | – | 0.71 mPa·s and 0.71 mPa·s | – | 0.6 mPa·s and 0.6 mPa·s
101.3 kPa, x1 = 0.007 | 1.14 mPa·s and 1.14 mPa·s | – | 0.9 mPa·s and 0.9 mPa·s | – | 0.74 mPa·s and 0.74 mPa·s | – | 0.62 mPa·s and 0.62 mPa·s
